Experimental data as given in ChEMBL document CHEMBL4483862, “Open-source discovery of chemical leads for next-generation chemoprotective antimalarials” (2018).

Tested on: Plasmodium berghei
Assay: Luciferase/luciferin-expressing antifolate-resistant parasites were used to infect a culture of HepG2 cells that were pre-incubated with compounds. Infected hepatocytes emit light due to the luciferase reaction. Assay results are presented as the percent inhibition of light emission compared to control. […]
Type: functional
Details: sporozoite; for IC90: read-out: LUCIFERASE INFECTION ASSAY - IC90

`Fc1ccc(N2CCN(c3nc(CN4CCOCC4)nc4scc(-c5ccccc5)c34)CC2)cc1` was tested, and the IC50 (HEPG2TOX_HILL_SLOPE 0.184, HEPG2TOX_R_SQUARED 0.0625, read-out: LUCIFERASE INFECTION ASSAY - IC50) was over 10 µM and the IC90 was over 10 µM.
`COc1cc(/C=N/Nc2c(Cl)c(Cl)nc(C(=O)O)c2Cl)cc(OC)c1OC` showed an IC50 (HEPG2TOX_HILL_SLOPE 0.214, HEPG2TOX_R_SQUARED 0.0951, read-out: LUCIFERASE INFECTION ASSAY - IC50) of over 10 µM and an IC90 of over 10 µM.
Work on `CC1(C(=O)Nc2cnc3ccccc3c2)CCN1Cc1ccccc1Cl` (centres undefined) yielded an IC50 (HEPG2TOX_HILL_SLOPE 0.189, HEPG2TOX_R_SQUARED 0.318, read-out: LUCIFERASE INFECTION ASSAY - IC50) of over 9.02 µM and an IC90 of over 9.02 µM.
`CC(=O)c1cccc(-c2cnc3cnc(-c4cccs4)cn23)c1` showed an IC50 (HEPG2TOX_HILL_SLOPE 0.197, HEPG2TOX_R_SQUARED 0.442, PBLUC_HILL_SLOPE 3.75, PBLUC_R_SQUARED 0.777, read-out: LUCIFERASE INFECTION ASSAY - IC50) of 4.74 µM and an IC90 of 8.52 µM.
With `CC(C)c1ccccc1NC(=O)Nc1nc(C(N)C2CCCCC2)cs1` (centres undefined) the IC50 (HEPG2TOX_HILL_SLOPE 0.21, HEPG2TOX_R_SQUARED 0.263, PBLUC_HILL_SLOPE 31.8, PBLUC_R_SQUARED 0.686, read-out: LUCIFERASE INFECTION ASSAY - IC50) was 7.47 µM and the IC90 was 8 µM.
Molecule `CCOC(=O)c1c(S(=O)(=O)Nc2ccc([N+](=O)[O-])cc2)c(-c2ccccc2)n(-c2ccccc2)c1C` has an IC50 (HEPG2TOX_HILL_SLOPE 0.2, HEPG2TOX_R_SQUARED 0.0818, PBLUC_HILL_SLOPE 2.97, PBLUC_R_SQUARED 0.542, read-out: LUCIFERASE INFECTION ASSAY - IC50) of over 6.53 µM and an IC90 of over 6.53 µM.
With `COc1ccc2cc(CN(C)CC(=O)Nc3sccc3C(N)=O)ccc2c1` the IC50 (HEPG2TOX_HILL_SLOPE 0.237, HEPG2TOX_R_SQUARED 0.621, PBLUC_HILL_SLOPE 9.54, PBLUC_R_SQUARED 0.647, read-out: LUCIFERASE INFECTION ASSAY - IC50) was 3.92 µM and the IC90 was 4.94 µM.
In the case of `CNc1nc2cnc(Nc3cccc(C(C)C)c3)cc2n1CCOC`, the IC50 (HEPG2TOX_HILL_SLOPE 0.218, HEPG2TOX_R_SQUARED 0.135, read-out: LUCIFERASE INFECTION ASSAY - IC50) is reported as over 10 µM and the IC90 is reported as over 10 µM.
`CCOC(=O)c1c(C)[nH]c(C(=O)C(C)OC(=O)c2c3c(nc4ccccc24)/C(=C/c2ccc(F)cc2)CCC3)c1C` (centres undefined) gave an IC50 (HEPG2TOX_HILL_SLOPE 0.182, HEPG2TOX_R_SQUARED 0.103, read-out: LUCIFERASE INFECTION ASSAY - IC50) of over 10 µM and an IC90 of over 10 µM.
Molecule `c1ccc(-c2cc3c(NCCCN4CCN(c5ncccn5)CC4)ncnc3s2)cc1` has an IC50 (HEPG2TOX_HILL_SLOPE 0.225, HEPG2TOX_R_SQUARED 0.56, PBLUC_HILL_SLOPE 1.89, PBLUC_R_SQUARED 0.636, read-out: LUCIFERASE INFECTION ASSAY - IC50) of 1.47 µM and an IC90 of 4.71 µM.
For `Cc1ccccc1-c1cn2c(-c3ccc4ncccc4c3)cnc2cn1`, the IC50 (HEPG2TOX_HILL_SLOPE 0.237, HEPG2TOX_R_SQUARED 0.401, PBLUC_HILL_SLOPE 15.7, PBLUC_R_SQUARED 0.693, read-out: LUCIFERASE INFECTION ASSAY - IC50) was 0.0131 µM and the IC90 was 0.015 µM.
With `CC(NC(=O)CSc1nnc(-c2cccs2)[nH]1)c1ccc2c(c1)CCCC2` (centres undefined) the IC50 (HEPG2TOX_HILL_SLOPE 0.208, HEPG2TOX_R_SQUARED 0.204, PBLUC_HILL_SLOPE 1.17, PBLUC_R_SQUARED 0.355, read-out: LUCIFERASE INFECTION ASSAY - IC50) was 7.84 µM and the IC90 was over 10 µM.
With `COc1ccccc1-c1ccc2ncc(-c3cccc(C(C)=O)c3)n2n1` the IC50 (HEPG2TOX_HILL_SLOPE 0.183, HEPG2TOX_R_SQUARED 0.285, PBLUC_HILL_SLOPE 2.88, PBLUC_R_SQUARED 0.586, read-out: LUCIFERASE INFECTION ASSAY - IC50) was 4.14 µM and the IC90 was 8.88 µM.
`Cc1cccc(OCCN(C)Cc2cc(=O)n3c([nH]c4ccccc43)c2C#N)c1` was tested, and the IC50 (HEPG2TOX_HILL_SLOPE 0.204, HEPG2TOX_R_SQUARED 0.162, PBLUC_HILL_SLOPE 2.87, PBLUC_R_SQUARED 0.544, read-out: LUCIFERASE INFECTION ASSAY - IC50) was 3.27 µM and the IC90 was 7.03 µM.
Work on `Cc1ccc(-c2nnc(SCCOc3ccccc3C)nc2-c2ccc(C)cc2)cc1` yielded an IC50 (HEPG2TOX_HILL_SLOPE 0.184, HEPG2TOX_R_SQUARED 0.53, PBLUC_HILL_SLOPE 4.7, PBLUC_R_SQUARED 0.148, read-out: LUCIFERASE INFECTION ASSAY - IC50) of 8.99 µM and an IC90 of over 10 µM.
`CCCC(CNC(=O)COC(=O)c1ccc2[nH]c3c(c2c1)CCCC3)c1ccc(Cl)cc1Cl` (centres undefined) showed an IC50 (HEPG2TOX_HILL_SLOPE 0.187, HEPG2TOX_R_SQUARED 0.0336, read-out: LUCIFERASE INFECTION ASSAY - IC50) of over 10 µM and an IC90 of over 10 µM.
In the case of `O=C(Nc1ccc(Cl)c(S(=O)(=O)N2CCCC2)c1)c1[nH]nc2ccccc12`, the IC50 (HEPG2TOX_HILL_SLOPE 0.202, HEPG2TOX_R_SQUARED 0.183, PBLUC_HILL_SLOPE 12.1, PBLUC_R_SQUARED 0.78, read-out: LUCIFERASE INFECTION ASSAY - IC50) is reported as 9.03 µM and the IC90 is reported as over 10 µM.
For `CC(C)C(C(=O)Nc1ccc(C#N)cc1)c1ccc(Cl)cc1` (centres undefined), the IC50 (HEPG2TOX_HILL_SLOPE 0.183, HEPG2TOX_R_SQUARED 0.415, read-out: LUCIFERASE INFECTION ASSAY - IC50) was over 10 µM and the IC90 was over 10 µM.
Work on `CN(Cc1cc(=O)n2c([nH]c3ccccc32)c1C#N)Cc1c(F)cccc1Cl` yielded an IC50 (HEPG2TOX_HILL_SLOPE 0.22, HEPG2TOX_R_SQUARED 0.757, PBLUC_HILL_SLOPE 1.9, PBLUC_R_SQUARED 0.518, read-out: LUCIFERASE INFECTION ASSAY - IC50) of 1.92 µM and an IC90 of 6.11 µM.
For `N#Cc1ccc(-c2cnc3cnc(-c4ccc(CNc5ccccc5)cc4)cn23)cc1`, the IC50 (HEPG2TOX_HILL_SLOPE 0.183, HEPG2TOX_R_SQUARED 0.0935, PBLUC_HILL_SLOPE 1.81, PBLUC_R_SQUARED 0.744, read-out: LUCIFERASE INFECTION ASSAY - IC50) was 1.98 µM and the IC90 was 6.67 µM.
`Cc1c(O)ccc2c(CNc3ccc(C(C)(C)C)cc3)cc(=O)oc12` showed an IC50 (HEPG2TOX_HILL_SLOPE 0.191, HEPG2TOX_R_SQUARED 0.186, PBLUC_HILL_SLOPE 2.86, PBLUC_R_SQUARED 0.292, read-out: LUCIFERASE INFECTION ASSAY - IC50) of 4.84 µM and an IC90 of over 10 µM.
`CCCC/N=C1\SCC(c2c[nH]c3ccccc23)=NN1C` was tested, and the IC50 (HEPG2TOX_HILL_SLOPE 0.211, HEPG2TOX_R_SQUARED 0.832, read-out: LUCIFERASE INFECTION ASSAY - IC50) was over 10 µM and the IC90 was over 10 µM.
With `Cc1nc(CSc2nc3c(c(-c4ccccc4)c2C#N)C(=O)CC(C)(C)C3)cs1` the IC50 (HEPG2TOX_HILL_SLOPE 0.218, HEPG2TOX_R_SQUARED 0.218, PBLUC_HILL_SLOPE 7.94, PBLUC_R_SQUARED 0.255, read-out: LUCIFERASE INFECTION ASSAY - IC50) was 9.59 µM and the IC90 was over 10 µM.
Molecule `Cc1nc(-c2ccc(CCNc3ncnc4sccc34)cc2)cs1` has an IC50 (HEPG2TOX_HILL_SLOPE 0.209, HEPG2TOX_R_SQUARED 0.388, PBLUC_HILL_SLOPE 0.293, PBLUC_R_SQUARED 0.513, read-out: LUCIFERASE INFECTION ASSAY - IC50) of 0.0119 µM and an IC90 of over 10 µM.
`CCN(c1ccccc1)S(=O)(=O)c1ccc(Sc2ccc(C)cc2C)nc1` was tested, and the IC50 (HEPG2TOX_HILL_SLOPE 0.198, HEPG2TOX_R_SQUARED 0.716, PBLUC_HILL_SLOPE 11.9, PBLUC_R_SQUARED 0.0318, read-out: LUCIFERASE INFECTION ASSAY - IC50) was 9.38 µM and the IC90 was over 10 µM.
Work on `Cc1cc(/C=C(\C#N)c2nnc(N3CCOCC3)n2-c2ccccc2)c(C)n1-c1cccc(C(F)(F)F)c1` yielded an IC50 (HEPG2TOX_HILL_SLOPE 0.204, HEPG2TOX_R_SQUARED 0.0193, PBLUC_HILL_SLOPE 1.7, PBLUC_R_SQUARED 0.432, read-out: LUCIFERASE INFECTION ASSAY - IC50) of over 10 µM and an IC90 of over 10 µM.
Molecule `CC(C)(C)c1ccc(-c2cnc3cnc(-c4ccncc4)cn23)cc1` has an IC50 (HEPG2TOX_HILL_SLOPE 0.197, HEPG2TOX_R_SQUARED 0.782, PBLUC_HILL_SLOPE 7.81, PBLUC_R_SQUARED 0.726, read-out: LUCIFERASE INFECTION ASSAY - IC50) of 3.62 µM and an IC90 of 4.79 µM.
`CCC(C)c1ccc(NC(=O)/C(C#N)=C/c2cc3c(cc2[N+](=O)[O-])OCO3)cc1` (centres undefined) showed an IC50 (HEPG2TOX_HILL_SLOPE 0.229, HEPG2TOX_R_SQUARED 0.341, PBLUC_HILL_SLOPE 0.634, PBLUC_R_SQUARED 0.752, read-out: LUCIFERASE INFECTION ASSAY - IC50) of 2.46 µM and an IC90 of over 10 µM.
In the case of `O=C(Nc1nc(-c2ccc[nH]2)cs1)c1cccc(Br)c1`, the IC50 (HEPG2TOX_HILL_SLOPE 0.199, HEPG2TOX_R_SQUARED 0.479, read-out: LUCIFERASE INFECTION ASSAY - IC50) is reported as over 10 µM and the IC90 is reported as over 10 µM.
Work on `COc1ccc(CN2C(=O)N(CC(C)C)C3(CCN(Cc4ccc5c(c4)CCO5)CC3)C2=O)cc1` yielded an IC50 (HEPG2TOX_HILL_SLOPE 0.211, HEPG2TOX_R_SQUARED 0.0109, PBLUC_HILL_SLOPE 2.27, PBLUC_R_SQUARED 0.453, read-out: LUCIFERASE INFECTION ASSAY - IC50) of 3.57 µM and an IC90 of over 6.91 µM.
Molecule `Cc1c(S(=O)(=O)c2ccc(Cl)cc2)csc1NC(=O)Nc1cc(C2CC2)n[nH]1` has an IC50 (HEPG2TOX_HILL_SLOPE 0.224, HEPG2TOX_R_SQUARED 0.199, PBLUC_HILL_SLOPE 2.99, PBLUC_R_SQUARED 0.447, read-out: LUCIFERASE INFECTION ASSAY - IC50) of 4.79 µM and an IC90 of over 7.55 µM.
`O=C(NC1CC1)c1ccc(-c2cnc3cnc(/C=C/c4ccccc4)cn23)cc1` was tested, and the IC50 (HEPG2TOX_HILL_SLOPE 0.214, HEPG2TOX_R_SQUARED 0.714, PBLUC_HILL_SLOPE 0.95, PBLUC_R_SQUARED 0.815, read-out: LUCIFERASE INFECTION ASSAY - IC50) was 1.05 µM and the IC90 was over 8.67 µM.
